Experiments:
physchem = type: physicochemical; conditions: 25 °C, pH 7.4, aqueous buffer, kinetic from dmso stock, Solubility
Procedure: A stock solution of a compound (10 mM in DMSO, 10 μL) was added to 990 μL of 100 mM sodium phosphate buffer (pH 7.4) and incubated at 25 °C for 2 h with constant shaking. The suspension was filtered through the PVDF membrane filter (Merck Millipore, Burlington, MA, USA). To 320 µL of the filtrate, 80 µL of acetonitrile was added and mixed. The mixture was transferred to a vial and analyzed by ultra-high-performance liquid chromatography (UHPLC) with UV detection. Concentrations were calculated from a 5-point calibration curve. The calibration range was 1 to 100 μM. The controls were diclofenac and nicardipine. All compounds were tested in triplicate.

[1] = test system: P. aeruginosa GIMC5016:PA1840/36/2015; test: MIC of antibiotics alone and with potentiators, clinical isolate
Procedure: (§2) Overnight (ON) culture of a specific strain was grown in the liquid Luria–Bertani nutrient medium (LB broth, BD Difco) for 18 h at 37 °C, with agitation at 180 rpm using an Innova 44R orbital shaker (Eppendorf, Hamburg, Germany). After a certain period, 50 µL of the ON culture was transferred into 5 mL of the LB medium and grown for 3 h at 37 °C with agitation. Growth in the liquid medium was assessed by means of turbidity of the suspension, measured using a Densi-La-Meter II densitometer (Erba Lachema s.r.o., Brno, Czech Republic). Then, the bacterial suspension was diluted to the concentration 10^6 cells/mL with sterile LB and used as a seed culture [38, 39].
(§3) For the assessment of MICs, 96-well microtiter plates were utilized at 200 µL of a medium per well. Each well was filled with 100 µL of the seed culture. After that, 10 µL of a solution of each tested synthetic compound (potentiators) was added into each experimental well. Finally, 90 µL of twofold serial dilutions of an antibiotic in a sterile LB was added into individual wells.
(§4) As a positive control, we set up wells with 100 µL of the bacterial culture and 100 µL of the sterile LB medium. […] Negative-control wells contained 200 µL of the sterile medium. The plates were incubated in a thermostat for 18–20 h at 37 °C. The bacterial growth was assessed as optical density at 600 nm on a CLARIOstar microplate reader (BMG LABTECH GmbH, Ortenberg, Germany)).

[2] = biological target: T1, human cystathionine-γ-lyase (hCSE) (Homo sapiens, UniProt P32929); test: IC50 assay: inhibition of H2S production by purified hCSE, WSP5 fluorescent probe; type: biochemical; conditions: purified hCSE 0.02 μM, 100 μM L-cysteine, WSP5 probe, mean ± SD; read-out: IC50 biochemical assay hCSE
T1 construct: His6-TEV (N, cleaved yes); host or cells: E. coli
T1 sequence (P32929 whole entry): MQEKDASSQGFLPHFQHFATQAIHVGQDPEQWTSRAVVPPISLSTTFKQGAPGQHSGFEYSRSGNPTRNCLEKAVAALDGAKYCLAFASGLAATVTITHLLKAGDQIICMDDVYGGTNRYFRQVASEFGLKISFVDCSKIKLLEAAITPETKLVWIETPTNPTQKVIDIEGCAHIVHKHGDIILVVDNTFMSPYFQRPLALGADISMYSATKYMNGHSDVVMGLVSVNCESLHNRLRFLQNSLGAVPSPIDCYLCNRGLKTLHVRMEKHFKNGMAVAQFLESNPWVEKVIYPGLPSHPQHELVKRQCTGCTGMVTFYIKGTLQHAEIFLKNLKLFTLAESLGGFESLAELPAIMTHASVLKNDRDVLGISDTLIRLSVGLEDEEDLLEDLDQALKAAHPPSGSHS
Procedure, shortened: (§1)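 Purified recombinant enzyme (0.02 μM; E. coli-expressed) preincubated 40 min at 30 °C with inhibitor in 50 mM sodium phosphate pH 8.0, 10 μM PLP, 0.1% Tween 20 and 1.2 μM WSP-5. Started with 100 μM L-cysteine; H2S fluorescence (ex 500/em 530 nm) followed 12 h. IC50 from four-parameter fit, mean of ≥2 experiments.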

[3] = biological target: S. aureus cystathionine-γ-lyase (bCSE) (Staphylococcus aureus, UniProt A0A0H3K724); test: IC50 assay: inhibition of H2S production by purified bCSE, WSP5 fluorescent probe; type: biochemical
Chain of S. aureus cystathionine-γ-lyase (bCSE) (A0A0H3K724 entry or part of it): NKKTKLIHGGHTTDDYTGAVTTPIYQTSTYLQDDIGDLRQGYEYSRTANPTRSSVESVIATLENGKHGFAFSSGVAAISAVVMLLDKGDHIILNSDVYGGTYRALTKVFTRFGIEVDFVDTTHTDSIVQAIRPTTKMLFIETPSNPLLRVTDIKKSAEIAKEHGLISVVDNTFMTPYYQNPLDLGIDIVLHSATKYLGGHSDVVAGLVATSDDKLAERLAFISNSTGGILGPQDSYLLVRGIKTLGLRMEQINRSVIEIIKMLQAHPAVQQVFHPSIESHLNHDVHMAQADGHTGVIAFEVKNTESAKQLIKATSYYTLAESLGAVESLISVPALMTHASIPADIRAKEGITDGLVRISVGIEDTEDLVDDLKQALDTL
Procedure, shortened: as §1

[4] = test system: A. baumannii GIMC5509:ABT-52Ts19; test: MIC of antibiotics alone and with potentiators, clinical isolate
Procedure: as §2, §3, §4

[5] = LogD7.4, miniaturized shake flask method; type: physicochemical; conditions: 1-octanol / 100 mM sodium phosphate buffer pH 7.4
Procedure: Coefficients of distribution between 1-octanol and 100 mM sodium phosphate buffer (pH 7.4) were determined by the miniaturized shake flask method. Namely, 5 μL of a 10 mM compound’s solution in DMSO was dissolved in 245 μL of 1-octanol saturated with phosphate buffer. Next, 500 μL of phosphate buffer saturated with 1-octanol was added, followed by mixing for 3 h. […] After that, 50 μL of the octanol phase (top layer) was aspirated and diluted with 500 μL of 1-octanol saturated with phosphate buffer. Then, the remaining octanol phase was removed; 50 μL of the buffer layer was aspirated and diluted with 500 μL of phosphate buffer saturated with 1-octanol. Both the octanol and phosphate buffer samples were analyzed by LC–MS/MS. The distribution coefficient was determined according to the following equation: logD7.4 = log10 (peak area for octanol sample/peak area for buffer sample). […] All compounds were tested in triplicate.

[6] = P. aeruginosa GIMC5016:PA1840/36/2015, potentiator 50 µg/mL
[7] = A. baumannii GIMC5509:ABT-52Ts19, potentiator 50 µg/mL

Compound: O=C(O)c1cc2ccccc2n1Cc1cccc2ccccc12 [Compound 2a]
- solubility at 2 h (physchem): > 100 µM
- MIC of Tacillin in combination with potentiator ([1]; P. aeruginosa GIMC5016:PA1840/36/2015, piperacillin + tazobactam, potentiator 50 µg/mL): 32 µg/mL
- MIC of Cefepim in combination with potentiator [1, 6]: 32 µg/mL
- MIC of Gentamicin in combination with potentiator [1, 6]: > 512 µg/mL
- MIC of Meropenem in combination with potentiator [1, 6]: 8 µg/mL
- IC50 [2]: 251 ± 16.6 µM
- IC50 ([3]; IC50 (uM), bCSE enzymatic IC50, rounded, repeated in Table S13): 65 µM
- IC50 ([3]; IC50 (uM), bCSE enzymatic IC50, rounded, repeated in Table S14): 65 µM
- IC50 ([3]; IC50 (uM), bCSE enzymatic IC50, rounded, repeated in Table S15): 65 µM
- IC50 ([3]; IC50 biochemical assay bCSE, purified bCSE 0.02 μM, 100 μM L-cysteine, WSP5 probe, mean ± SD): 64.6 ± 3.1 µM
- MIC of Tacillin in combination with potentiator ([4]; A. baumannii GIMC5509:ABT-52Ts19, piperacillin + tazobactam, potentiator 50 µg/mL): 64 µg/mL
- MIC of Cefepim in combination with potentiator [4, 7]: 256 µg/mL
- MIC of Meropenem in combination with potentiator [4, 7]: 32 µg/mL
- Measured logD7.4 ([5]; listed as 2а): 2.14±0.14
- Measured logD7.4 ([5]; listed as lead compound): 1–3

From PMC10671052, “Naphthyl-Substituted Indole and Pyrrole Carboxylic Acids as Effective Antibiotic Potentiators—Inhibitors of Bacterial Cystathionine γ-Lyase” (International Journal of Molecular Sciences, 2023)
